Data taken from the CombiSolv-Exp solvation set (Vermeire and Green 2021).

Assay: solvent given as SMILES
[1] = in CCCCCCCCC=CCCCCCCCC(=O)OCC(COC(=O)CCCCCCCC=CCCCCCCCC)OC(=O)CCCCCCCC=CCCCCCCCC

In the case of `O=C(O)c1ccccc1O`, the “solvation free energy, 298 K” value (in C1CCOC1) is reported as -45.1 kJ/mol, the “solvation free energy, 298 K” value (in C1COCCO1) is reported as -43.3 kJ/mol and the “solvation free energy, 298 K” value (in CC(C)(C)O) is reported as -43.6 kJ/mol. The “solvation free energy, 298 K” value (in CC(C)=O) was -43.8 kJ/mol, the “solvation free energy, 298 K” value (in CC(C)CCO) was -42.4 kJ/mol and the “solvation free energy, 298 K” value (in CC(C)CO) was -42.6 kJ/mol. The “solvation free energy, 298 K” value (in CC(C)O) was -43.5 kJ/mol, the “solvation free energy, 298 K” value (in CCC(C)=O) was -43.5 kJ/mol and the “solvation free energy, 298 K” value (in CCC(C)O) was -43.2 kJ/mol. The “solvation free energy, 298 K” value (in CCCC(C)O) was -43 kJ/mol, the “solvation free energy, 298 K” value (in CCCCCCCCO) was -42.5 kJ/mol and the “solvation free energy, 298 K” value (in CCCCCCO) was -42.6 kJ/mol. The “solvation free energy, 298 K” value (in CCCCCO) was -42.5 kJ/mol, the “solvation free energy, 298 K” value (in CCCCO) was -42.9 kJ/mol and the “solvation free energy, 298 K” value (in CCCCOC(C)=O) was -41.9 kJ/mol. For the same compound, the “solvation free energy, 298 K” value (in CCCCOCCCC) was -40.1 kJ/mol, the “solvation free energy, 298 K” value (in CCCO) was -43.3 kJ/mol and the “solvation free energy, 298 K” value (in CCO) was -43.5 kJ/mol. For the same compound, the “solvation free energy, 298 K” value (in CCOC(C)=O) was -42.3 kJ/mol, the “solvation free energy, 298 K” value (in CCOCC) was -42.5 kJ/mol and the “solvation free energy, 298 K” value (in CN(C)C=O) was -45.5 kJ/mol. For the same compound, the “solvation free energy, 298 K” value (in CO) was -43.8 kJ/mol, the “solvation free energy, 298 K” value (in COC(C)(C)C) was -42.6 kJ/mol and the “solvation free energy, 298 K” value (in COC(C)=O) was -42.6 kJ/mol. The “solvation free energy, 298 K” value (in Clc1ccccc1) was -35 kJ/mol, the “solvation free energy, 298 K” value (in NC=O) was -41.7 kJ/mol and the “solvation free energy, 298 K” value (in O) was -30.8 kJ/mol. The “solvation free energy, 298 K” value (in O=C1CCCCC1) was -43.7 kJ/mol.

In the case of `CN1C2CCC1CC(OC(=O)C(CO)c1ccccc1)C2` (stereo not drawn), the “solvation free energy, 298 K” value (in CCO) is reported as -75.3 kJ/mol.

For `CCCCCCCCCCOC(=O)c1ccccc1C(=O)OCC`, the “solvation free energy, 298 K” value (in O) was -28.4 kJ/mol.

With `Cc1ccccc1C(=O)N(O)c1ccccc1` the “solvation free energy, 298 K” value (in O) was -48.2 kJ/mol.

With `O=Cc1ccc(C(=O)O)cc1` the “solvation free energy, 298 K” value (in CN1CCCC1=O) was -53.6 kJ/mol and the “solvation free energy, 298 K” value (in O) was -37.4 kJ/mol.

For `C=CCO`, the “solvation free energy, 298 K” value (in CC(=O)N(C)C) was -19.6 kJ/mol, the “solvation free energy, 298 K” value (in CCCCN(C=O)CCCC) was -22.7 kJ/mol and the “solvation free energy, 298 K” value (in CNC(C)=O) was -24.6 kJ/mol. The “solvation free energy, 298 K” value (in O) was -21.1 kJ/mol.

In the case of `Cc1c(Cl)c(Cl)c(Cl)c(Cl)c1Cl`, the “solvation free energy, 298 K” value [1] is reported as -41.3 kJ/mol and the “solvation free energy, 298 K” value (in O) is reported as -8.45 kJ/mol.

For `CCCC(=O)OCCC(C)CCC=C(C)C` (stereo not drawn), the “solvation free energy, 298 K” value (in O) was -11.4 kJ/mol.

For `CC(C)C(=O)C(C)C`, the “solvation free energy, 298 K” value (in O) was -10.7 kJ/mol.

With `Cc1cc(O)ccc1[N+](=O)[O-]` the “solvation free energy, 298 K” value (in CCCCOCCCC) was -50.7 kJ/mol and the “solvation free energy, 298 K” value (in O) was -41.4 kJ/mol.

For `c1ccc2c(c1)CCC2`, the “solvation free energy, 298 K” value (in O) was -5.94 kJ/mol.

With `CC1CCCCC1` the “solvation free energy, 298 K” value (in C1CCOC1) was -19.5 kJ/mol, the “solvation free energy, 298 K” value (in C1COCCO1) was -17.1 kJ/mol and the “solvation free energy, 298 K” value (in CC1CCS(=O)(=O)C1) was -12.6 kJ/mol. For the same compound, the “solvation free energy, 298 K” value (in CC#N) was -13.7 kJ/mol, the “solvation free energy, 298 K” value (in CC(=O)N(C)C) was -15.4 kJ/mol and the “solvation free energy, 298 K” value (in CC(C)=O) was -16.4 kJ/mol. The “solvation free energy, 298 K” value (in CC(C)CCCC(C)CCCC(C)CCCCC(C)CCCC(C)CCCC(C)C) was -18 kJ/mol, the “solvation free energy, 298 K” value (in CC(C)O) was -15.9 kJ/mol and the “solvation free energy, 298 K” value (in CCC#N) was -17 kJ/mol. The “solvation free energy, 298 K” value (in CCC(C)=O) was -17.2 kJ/mol, the “solvation free energy, 298 K” value (in CCCC#N) was -15.2 kJ/mol and the “solvation free energy, 298 K” value (in CCCCC(CC)COC(=O)c1ccccc1C(=O)OCC(CC)CCCC) was -16.7 kJ/mol. The “solvation free energy, 298 K” value (in CCCCCCC) was -20 kJ/mol, the “solvation free energy, 298 K” value [1] was -17.8 kJ/mol and the “solvation free energy, 298 K” value (in CCCCCCCCCC) was -19.1 kJ/mol. The “solvation free energy, 298 K” value (in CCCCCCCO) was -17.4 kJ/mol, the “solvation free energy, 298 K” value (in CCCCN(C=O)CCCC) was -16.9 kJ/mol and the “solvation free energy, 298 K” value (in CCCCOC(=O)c1ccccc1C(=O)OCCCC) was -17.2 kJ/mol. For the same compound, the “solvation free energy, 298 K” value (in CCOC(=O)c1ccccc1C(=O)OCC) was -15 kJ/mol, the “solvation free energy, 298 K” value (in CN1CCCC1=O) was -15 kJ/mol and the “solvation free energy, 298 K” value (in CN1CCCCC1=O) was -15.6 kJ/mol. The “solvation free energy, 298 K” value (in CN(C)C=O) was -14.7 kJ/mol, the “solvation free energy, 298 K” value (in CNC(C)=O) was -15 kJ/mol and the “solvation free energy, 298 K” value (in CNC=O) was -13.3 kJ/mol. For the same compound, the “solvation free energy, 298 K” value (in COC(C)(C)C) was -20.1 kJ/mol, the “solvation free energy, 298 K” value (in COCCO) was -14.5 kJ/mol and the “solvation free energy, 298 K” value (in CS(C)=O) was -11.4 kJ/mol. For the same compound, the “solvation free energy, 298 K” value (in NC=O) was -5.94 kJ/mol, the “solvation free energy, 298 K” value (in Nc1ccccc1) was -13.8 kJ/mol and the “solvation free energy, 298 K” value (in O) was 7.11 kJ/mol. For the same compound, the “solvation free energy, 298 K” value (in O=C1CCCO1) was -12.6 kJ/mol, the “solvation free energy, 298 K” value (in O=CN1CCOCC1) was -12.3 kJ/mol and the “solvation free energy, 298 K” value (in OCCCCCO) was -12 kJ/mol. The “solvation free energy, 298 K” value (in OCCCCO) was -11.6 kJ/mol, the “solvation free energy, 298 K” value (in OCCCO) was -10 kJ/mol and the “solvation free energy, 298 K” value (in OCCO) was -6.61 kJ/mol. For the same compound, the “solvation free energy, 298 K” value (in OCCOCCO) was -9.96 kJ/mol, the “solvation free energy, 298 K” value (in OCCOCCOCCO) was -10.2 kJ/mol and the “solvation free energy, 298 K” value (in OCCOCCOCCOCCO) was -10.7 kJ/mol. For the same compound, the “solvation free energy, 298 K” value (in OCCS) was -11.8 kJ/mol.

With `O=C(O)CCc1ccccc1` the “solvation free energy, 298 K” value (in O) was -37.7 kJ/mol.

In the case of `CCCCCC=CC=O`, the “solvation free energy, 298 K” value (in O) is reported as -14.4 kJ/mol.

In the case of `C1COCCOCCOCCOCCOC1`, the “solvation free energy, 298 K” value (in Cc1cccc(C)c1) is reported as -47.9 kJ/mol and the “solvation free energy, 298 K” value (in O) is reported as -52.4 kJ/mol.
